Assay results taken from patent publication US20110105623A1 (Biogenic Innovations, LLC, priority 2009, published 2011).

Legend:
Bifidobacterium bifidum = test: Probiotic growth in media supplemented with MSM; assay type: cell-based; parameters: unit not given here
From the text: (§1) Plates were then counted. […] Data are presented in Cfu/mL.

[1] = tested on: Lactobacillus delbrueckii (Lactobacillus bulgaricus); test: Probiotic growth in media supplemented with MSM; assay type: cell-based; parameters: unit not given here
From the text: as §1

## Methylsulfonylmethane [MSM]
Bifidobacterium bifidum; 0.125% MSM, 0 h
  Growth of Bifidobacteruim bifidum: 1.64
Bifidobacterium bifidum; 0.125% MSM, 8 h
  Growth of Bifidobacteruim bifidum: 1.73
Bifidobacterium bifidum; 0.125% MSM, 16 h
  Growth of Bifidobacteruim bifidum: 6.55
Bifidobacterium bifidum; 0.125% MSM, 24 h
  Growth of Bifidobacteruim bifidum: 2.70
Bifidobacterium bifidum; 0.125% MSM, 32 h
  Growth of Bifidobacteruim bifidum: 3.37
Bifidobacterium bifidum; 0.125% MSM, 40 h
  Growth of Bifidobacteruim bifidum: 4.19
Bifidobacterium bifidum; 0.125% MSM, 48 h
  Growth of Bifidobacteruim bifidum: 6.41
Bifidobacterium bifidum; 0.125% MSM, 56 h
  Growth of Bifidobacteruim bifidum: 9.97
Bifidobacterium bifidum; 0.125% MSM, 64 h
  Growth of Bifidobacteruim bifidum: 11.34
Bifidobacterium bifidum; 0.125% MSM, 72 h
  Growth of Bifidobacteruim bifidum: 10.00
Bifidobacterium bifidum; 0.2% MSM, 0 h
  Growth of Bifidobacteruim bifidum: 1.82
Bifidobacterium bifidum; 0.2% MSM, 8 h
  Growth of Bifidobacteruim bifidum: 2.08
Bifidobacterium bifidum; 0.2% MSM, 16 h
  Growth of Bifidobacteruim bifidum: 5.22
Bifidobacterium bifidum; 0.2% MSM, 24 h
  Growth of Bifidobacteruim bifidum: 6.15
Bifidobacterium bifidum; 0.2% MSM, 32 h
  Growth of Bifidobacteruim bifidum: 5.03
Bifidobacterium bifidum; 0.2% MSM, 40 h
  Growth of Bifidobacteruim bifidum: 8.14
Bifidobacterium bifidum; 0.2% MSM, 48 h
  Growth of Bifidobacteruim bifidum: 8.55
Bifidobacterium bifidum; 0.2% MSM, 56 h
  Growth of Bifidobacteruim bifidum: 9.00
Bifidobacterium bifidum; 0.2% MSM, 64 h
  Growth of Bifidobacteruim bifidum: 10.19
Bifidobacterium bifidum; 0.2% MSM, 72 h
  Growth of Bifidobacteruim bifidum: 9.10
Bifidobacterium bifidum; 0.50% MSM, 0 h
  Growth of Bifidobacteruim bifidum: 1.85
Bifidobacterium bifidum; 0.50% MSM, 8 h
  Growth of Bifidobacteruim bifidum: 1.99
Bifidobacterium bifidum; 0.50% MSM, 16 h
  Growth of Bifidobacteruim bifidum: 6.53
Bifidobacterium bifidum; 0.50% MSM, 24 h
  Growth of Bifidobacteruim bifidum: 3.14
Bifidobacterium bifidum; 0.50% MSM, 32 h
  Growth of Bifidobacteruim bifidum: 3.52
Bifidobacterium bifidum; 0.50% MSM, 40 h
  Growth of Bifidobacteruim bifidum: 4.62
Bifidobacterium bifidum; 0.50% MSM, 48 h
  Growth of Bifidobacteruim bifidum: 4.51
Bifidobacterium bifidum; 0.50% MSM, 56 h
  Growth of Bifidobacteruim bifidum: 6.05
Bifidobacterium bifidum; 0.50% MSM, 64 h
  Growth of Bifidobacteruim bifidum: 9.55
Bifidobacterium bifidum; 0.50% MSM, 72 h
  Growth of Bifidobacteruim bifidum: 7.52
Bifidobacterium bifidum; 1% MSM, 0 h
  Growth of Bifidobacteruim bifidum: 1.48
Bifidobacterium bifidum; 1% MSM, 8 h
  Growth of Bifidobacteruim bifidum: 1.70
Bifidobacterium bifidum; 1% MSM, 16 h
  Growth of Bifidobacteruim bifidum: 6.81
Bifidobacterium bifidum; 1% MSM, 24 h
  Growth of Bifidobacteruim bifidum: 2.75
Bifidobacterium bifidum; 1% MSM, 32 h
  Growth of Bifidobacteruim bifidum: 3.37
Bifidobacterium bifidum; 1% MSM, 40 h
  Growth of Bifidobacteruim bifidum: 3.48
Bifidobacterium bifidum; 1% MSM, 48 h
  Growth of Bifidobacteruim bifidum: 3.90
Bifidobacterium bifidum; 1% MSM, 56 h
  Growth of Bifidobacteruim bifidum: 8.32
Bifidobacterium bifidum; 1% MSM, 64 h
  Growth of Bifidobacteruim bifidum: 8.02
Bifidobacterium bifidum; 1% MSM, 72 h
  Growth of Bifidobacteruim bifidum: 9.52
Bifidobacterium bifidum; 5% MSM, 0 h
  Growth of Bifidobacteruim bifidum: 1.00
Bifidobacterium bifidum; 5% MSM, 8 h
  Growth of Bifidobacteruim bifidum: 2.29
Bifidobacterium bifidum; 5% MSM, 16 h
  Growth of Bifidobacteruim bifidum: 6.71
Bifidobacterium bifidum; 5% MSM, 24 h
  Growth of Bifidobacteruim bifidum: 5.72
Bifidobacterium bifidum; 5% MSM, 32 h
  Growth of Bifidobacteruim bifidum: 10.32
Bifidobacterium bifidum; 5% MSM, 40 h
  Growth of Bifidobacteruim bifidum: 12.02
Bifidobacterium bifidum; 5% MSM, 48 h
  Growth of Bifidobacteruim bifidum: 10.54
Bifidobacterium bifidum; 5% MSM, 56 h
  Growth of Bifidobacteruim bifidum: 10.92
Bifidobacterium bifidum; 5% MSM, 64 h
  Growth of Bifidobacteruim bifidum: 12.04
Bifidobacterium bifidum; 5% MSM, 72 h
  Growth of Bifidobacteruim bifidum: 12.43
Bifidobacterium bifidum; […] MSM, 0 h
  Growth of Bifidobacteruim bifidum: 1.64
Bifidobacterium bifidum; […] MSM, 8 h
  Growth of Bifidobacteruim bifidum: 1.60
Bifidobacterium bifidum; […] MSM, 16 h
  Growth of Bifidobacteruim bifidum: 6.21
Bifidobacterium bifidum; […] MSM, 24 h
  Growth of Bifidobacteruim bifidum: 2.52
Bifidobacterium bifidum; […] MSM, 32 h
  Growth of Bifidobacteruim bifidum: 3.37
Bifidobacterium bifidum; […] MSM, 40 h
  Growth of Bifidobacteruim bifidum: 3.52
Bifidobacterium bifidum; […] MSM, 48 h
  Growth of Bifidobacteruim bifidum: 3.95
Bifidobacterium bifidum; […] MSM, 56 h
  Growth of Bifidobacteruim bifidum: 8.35
Bifidobacterium bifidum; […] MSM, 64 h
  Growth of Bifidobacteruim bifidum: 8.30
Bifidobacterium bifidum; […] MSM, 72 h
  Growth of Bifidobacteruim bifidum: 10.12
[1]; 0.125% MSM, 0 h
  Growth of Lactobacillus bulgaricus: 2.29
[1]; 0.125% MSM, 8 h
  Growth of Lactobacillus bulgaricus: 4.15
[1]; 0.125% MSM, 16 h
  Growth of Lactobacillus bulgaricus: 8.22
[1]; 0.125% MSM, 24 h
  Growth of Lactobacillus bulgaricus: 9.04
[1]; 0.125% MSM, 32 h
  Growth of Lactobacillus bulgaricus: 8.55
[1]; 0.125% MSM, 40 h
  Growth of Lactobacillus bulgaricus: 9.29
[1]; 0.125% MSM, 48 h
  Growth of Lactobacillus bulgaricus: 10.94
[1]; 0.125% MSM, 56 h
  Growth of Lactobacillus bulgaricus: 8.00
[1]; 0.125% MSM, 64 h
  Growth of Lactobacillus bulgaricus: 8.59
[1]; 0.125% MSM, 72 h
  Growth of Lactobacillus bulgaricus: 6.74
[1]; 0.2% MSM, 0 h
  Growth of Lactobacillus bulgaricus: 2.25
[1]; 0.2% MSM, 8 h
  Growth of Lactobacillus bulgaricus: 4.08
[1]; 0.2% MSM, 16 h
  Growth of Lactobacillus bulgaricus: 8.34
[1]; 0.2% MSM, 24 h
  Growth of Lactobacillus bulgaricus: 9.10
[1]; 0.2% MSM, 32 h
  Growth of Lactobacillus bulgaricus: 9.60
[1]; 0.2% MSM, 40 h
  Growth of Lactobacillus bulgaricus: 9.11
[1]; 0.2% MSM, 48 h
  Growth of Lactobacillus bulgaricus: 11.07
